The subject of experiment [1] is FMAL-actin plus TMR-cC0-C2. Description: Selleck library HTS, 473 nm excitation (FLT of FMAL-actin with TMR-cC0-C2, FLT-FRET). As to conditions: for 473-nm Δτ, Repeat 1 / 473-nm Δτ, Repeat 2: initial screen, 30 μM compound; for 473-nm z-score (based on avg Δτ): robust z-score, hit threshold ±4, 30 μM compound. It counts as binding, human. Summed up:
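Donor fluorescence lifetime was then recorded. Waveforms were fit to a single exponential, and ΔFLT was obtained after a moving-median plate-gradient correction (half-row window), rescaled by the median DMSO lifetime.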

Experiment [2] has as its system PKA-phosphorylated TMR-cC0-C2 (cC0-C2#P). The experiment is described as follows: FLT-TMR concentration-response assay, PKA-phosphorylated cC0-C2. It counts as binding, human. Here is the method: (§1) Compounds identified as initial hits were further examined to determine the concentration–response curves for seven conditions ([1]): FMAL-actin alone identified actin-binding compounds that alter the FLT of FMAL-actin ([2]).
(§2) Fluorescence lifetime (FLT) measurements were acquired using a high-throughput FLT plate reader (Fluorescence Innovations, Inc) ([14], [27]), provided by Photonic Pharma LLC. […] The observed waveforms were analyzed as described previously ([15], [28]).
(§3) The primary hits were dissolved in DMSO to make a 10 mM stock solution, which was serially diluted in 96-well mother plates. Hits were screened at eight concentrations (0.5–100 μM). […] Compounds (1 μl) were transferred from the mother plates into 384-well plates using a Mosquito HV liquid handler (TTP Labtech Ltd, Hertfordshire, UK). The same procedure of dispensing as for the pilot screening was applied in the concentration-response assays. Concentration dependence of the FLT-FRET (E/EDMSO) or FLT-TMR (Δτ) change data was fit to a Hill equation only under certain conditions to help guide the eye (Fig. 4).

Experiment [3] has as its system TMR-cC0-C2 (C0-C2 fragment of human cMyBP-C). The experiment is described as follows: FLT-TMR concentration-response assay (FLT of TMR on cC0-C2, no actin). The experiment is classed as binding. Here is the method: as §1, §2, §3
Experiment [4] relates to FMAL-actin/TMR-cC0-C2 interaction. The experiment is described as follows: FLT-FRET concentration-response assay, FMAL-actin plus TMR-cC0-C2. It counts as binding, human. As to conditions: for fold effect on increased FRET (or binding) (Table 2): comparison not given; for specificity of FLT-FRET effect for unphosphorylated over phosphorylated cC0-C2: effect on cC0-C2 compared to phosphorylated cC0-C2 (Tables 1 and 2). Here is the method: as §1, §2, §3

Experiment [5] has as its system TMR-fC1-C2 (C1-C2 of fast skeletal MyBP-C). The experiment is described as follows: FLT-TMR concentration-response assay, fC1-C2. It counts as binding. Here is the method:
as §1, §2, §3

The subject of experiment [6] is TMR-cC0-C2. Description: Selleck library HTS, 532 nm excitation (FLT of TMR-cC0-C2 in presence of FMAL-actin). The experiment is classed as binding, human. The following applies: for 532-nm Δτ, Repeat 1 / 532-nm Δτ, Repeat 2: initial screen, 30 μM compound; for 532-nm z-score (based on avg Δτ): robust z-score, hit threshold ±4, 30 μM compound.

Consider four compounds from PMC10692721, “Drug discovery for heart failure targeting myosin-binding protein C” (The Journal of Biological Chemistry, 2023).

Take `C[C@H]1O[C@@H](O[C@H]2CC[C@@]3(C)[C@@H](CC[C@]4(C)[C@@H]3C=C[C@]35OC[C@@]6(CCC(C)(C)C[C@H]63)[C@H](O)C[C@]54C)[C@]2(C)CO)[C@H](O)[C@@H](O[C@@H]2O[C@H](CO)[C@@H](O)[C@H](O)[C@H]2O)[C@H]1O` [Saikosaponin D]: in experiment [1], the “473-nm Δτ, Repeat 1” value is reported as -0.122 ns; the “473-nm Δτ, Repeat 2” value is listed as -0.094 ns; the “473-nm z-score (based on avg Δτ)” value was -5.99. Moreover, the “cC0-C2#P FLT change (% change from DMSO, FLT of TMR-MyBP-C)” value in experiment [2] (60 μM compound) is given as 6.3%. Besides, in experiment [3] (60 μM compound), the “cC0-C2/cC0-C2#P (ratio of FLT changes)” value is given as 0.9 and the “cC0-C2 FLT change (% change from DMSO, FLT of TMR-MyBP-C)” value stood at 5.4%. Further, in experiment [4], the “fold effect on increased FRET (or binding) (Table 2)” value (shortened to “fold effect on increased FRET”) is on record as “fivefold or greater” and the “specificity of FLT-FRET effect for unphosphorylated over phosphorylated cC0-C2” value is listed as 13–54 fold. Moreover, in experiment [5] (60 μM compound), the “cC0-C2/fC1-C2 (ratio of FLT changes)” value came out at 1.3 and the “fC1-C2 FLT change (% change from DMSO, FLT of TMR-MyBP-C)” value stood at 4.2%. In experiment [6], the “532-nm Δτ, Repeat 1” value is 0.065 ns; the “532-nm Δτ, Repeat 2” value stood at 0.086 ns; the “532-nm z-score (based on avg Δτ)” value stood at 4.65.
As for `C[C@@H]1O[C@@H](OC[C@H]2O[C@@H](Oc3c(-c4ccc(OCCO)c(OCCO)c4)oc4cc(OCCO)cc(O)c4c3=O)[C@H](O)[C@@H](O)[C@@H]2O)[C@H](O)[C@H](O)[C@H]1O` [Troxerutin], in experiment [1], the “473-nm Δτ, Repeat 1” value is recorded as -0.024 ns; the “473-nm Δτ, Repeat 2” value was -0.024 ns; the “473-nm z-score (based on avg Δτ)” value is -1.32. For the same compound, the “cC0-C2#P FLT change (% change from DMSO, FLT of TMR-MyBP-C)” value in experiment [2] (60 μM compound) came to 7.3%. Besides, in experiment [3] (60 μM compound), the “cC0-C2/cC0-C2#P (ratio of FLT changes)” value turned out to be 0.8 and the “cC0-C2 FLT change (% change from DMSO, FLT of TMR-MyBP-C)” value is given as 6.1%. Also, in experiment [5] (60 μM compound), the “cC0-C2/fC1-C2 (ratio of FLT changes)” value worked out at 1.0 and the “fC1-C2 FLT change (% change from DMSO, FLT of TMR-MyBP-C)” value worked out at 6.0%. In addition, in experiment [6], the “532-nm Δτ, Repeat 1” value turned out to be 0.074 ns; the “532-nm Δτ, Repeat 2” value came out at 0.088 ns; the “532-nm z-score (based on avg Δτ)” value was determined as 4.99.
Take `C[C@@H]1O[C@@H](O[C@H]2[C@H](O[C@H]3CC[C@@]4(C)[C@@H](CC[C@]5(C)[C@@H]4CC=C4[C@@H]6CC(C)(C)CC[C@]6(C(=O)O)CC[C@]45C)[C@]3(C)CO)OC[C@H](O)[C@@H]2O)[C@H](O)[C@H](O)[C@H]1O` [α-Hederin]: in experiment [1], the “473-nm Δτ, Repeat 1” value is reported as -0.087 ns; the “473-nm Δτ, Repeat 2” value is -0.051 ns; the “473-nm z-score (based on avg Δτ)” value is given as -3.83. Besides, the “cC0-C2#P FLT change (% change from DMSO, FLT of TMR-MyBP-C)” value in experiment [2] (60 μM compound) is 7.1%. In experiment [3] (60 μM compound), the “cC0-C2/cC0-C2#P (ratio of FLT changes)” value came to 0.9 and the “cC0-C2 FLT change (% change from DMSO, FLT of TMR-MyBP-C)” value was 6.7%. In experiment [4], the “fold effect on increased FRET” value is reported as “fivefold or greater” and the “specificity of FLT-FRET effect for unphosphorylated over phosphorylated cC0-C2” value was 13–54 fold. In addition, in experiment [5] (60 μM compound), the “cC0-C2/fC1-C2 (ratio of FLT changes)” value is on record as 1.0 and the “fC1-C2 FLT change (% change from DMSO, FLT of TMR-MyBP-C)” value is 6.7%. Further, in experiment [6], the “532-nm Δτ, Repeat 1” value worked out at 0.105 ns; the “532-nm Δτ, Repeat 2” value is reported as 0.175 ns; the “532-nm z-score (based on avg Δτ)” value is listed as 8.58.
In the case of Verteporfin, in experiment [1], the “473-nm Δτ, Repeat 1” value is given as 0.093 ns; the “473-nm Δτ, Repeat 2” value is recorded as 0.064 ns; the “473-nm z-score (based on avg Δτ)” value came to 4.41. Also, the “cC0-C2#P FLT change (% change from DMSO, FLT of TMR-MyBP-C)” value in experiment [2] (10 μM compound (∗)) is 6.8%. Also, in experiment [3] (10 μM compound (∗)), the “cC0-C2/cC0-C2#P (ratio of FLT changes)” value came out at 0.8 and the “cC0-C2 FLT change (% change from DMSO, FLT of TMR-MyBP-C)” value is reported as 5.5%. In addition, the “fold effect on increased FRET” value in experiment [4] was “fivefold or greater”. The “specificity of FLT-FRET effect for cC0-C2 over fC1-C2” value in experiment [4] (effect on cC0-C2 compared to fC1-C2 (Tables 1 and 2)) is on record as 22.4 fold. Moreover, in experiment [5] (10 μM compound (∗)), the “cC0-C2/fC1-C2 (ratio of FLT changes)” value amounted to 2.2 and the “fC1-C2 FLT change (% change from DMSO, FLT of TMR-MyBP-C)” value was 2.5%. Moreover, in experiment [6], the “532-nm Δτ, Repeat 1” value turned out to be 0.065 ns; the “532-nm Δτ, Repeat 2” value stood at 0.075 ns; the “532-nm z-score (based on avg Δτ)” value is recorded as 4.32.
